Results from article PMC12516390 (ACS Medicinal Chemistry Letters, 2025).
Read-outs that look alike come from different tables or passages of the source.

Columns and labels:
[1] = target: PL^Pro (Severe acute respiratory syndrome coronavirus 2, UniProt P0DTD1); assay: SARS-CoV-2 PLpro screening (Ac-LRGG-ACC substrate); assay type: biochemical; settings: read-out: PL^Pro (%inh)@10μM
[2] = target: recombinant M^Pro (Severe acute respiratory syndrome coronavirus 2, UniProt P0DTD1); assay: SARS-CoV-2 Mpro screening and IC50 determination (QS1 fluorogenic substrate, Drag assay); assay type: biochemical; settings: for inhibition at 10 µM: read-out: M^Pro (%inh)@10μM
[3] = in vitro; settings: African monkey
[4] = recombinant M^Pro, 20 μM QS1 (Ac-Abu-Tle-Leu-Gln-ACC) substrate, Table 1, read-out: M^Pro IC50
[5] = M^Pro IC50 (μM), recombinant M^Pro, 20 μM QS1 substrate, Table 3
[6] = recombinant M^Pro, 20 μM QS1 substrate, Table 3, read-out: M^Pro IC50
[7] = recombinant M^Pro, 20 μM QS1 substrate, Table 5, read-out: IC50 (μM) M^Pro

SMILES | inhibition at 10 µM [1] | inhibition at 10 µM [2] | IC50 [2, 4] | also measured
CC(C)C[C@H](NC(=O)c1ccc(-c2ccc(Cl)cc2)cc1)C(=O)N[C@H](C#N)C[C@@H]1CCNC1=O [6a] | < 50% | > 95% | 0.724 µM | activity / biochemical potency against M^Pro (in words) [2]: submicromolar
CC(C)C[C@H](NC(=O)c1ccc(-c2ccc(F)cc2)cc1)C(=O)N[C@H](C#N)C[C@@H]1CCNC1=O [6b] | < 50% | > 95% | 0.849 µM | activity / biochemical potency against M^Pro (in words) [2]: submicromolar
CCOc1ccc(-c2ccc(C(=O)N[C@@H](CC(C)C)C(=O)N[C@H](C#N)C[C@@H]3CCNC3=O)cc2)cc1 [6c] | < 50% | > 95% | 0.765 µM | –
COc1ccc(-c2ccc(C(=O)N[C@@H](CC(C)C)C(=O)N[C@H](C#N)C[C@@H]3CCNC3=O)cc2)cc1 [6d] | < 50% | > 95% | 0.735 µM | –
COc1ccccc1-c1ccc(C(=O)N[C@@H](CC(C)C)C(=O)N[C@H](C#N)C[C@@H]2CCNC2=O)cc1 [6g] | < 50% | > 95% | 1.09 µM | IC50 ([2]; read-out: M^Pro IC50): > 1 µM
CC(C)C[C@H](NC(=O)c1ccc(-c2cncc(Cl)c2)cc1)C(=O)N[C@H](C#N)C[C@@H]1CCNC1=O [6h] | < 50% | > 95% | 1.3 µM | IC50 ([2]; read-out: M^Pro IC50): > 1 µM
CCOc1cccc(-c2ccc(C(=O)N[C@@H](CC(C)C)C(=O)N[C@H](C#N)C[C@@H]3CCNC3=O)cc2)c1 [6i] | < 50% | > 95% | 0.798 µM | –
COc1ccc(-c2ccc(C(=O)N[C@@H](CC(C)C)C(=O)N[C@H](C#N)C[C@@H]3CCNC3=O)cc2)cn1 [6k] | < 50% | > 95% | 1.21 µM | IC50 ([2]; read-out: M^Pro IC50): > 1 µM
CCOc1ccc(-c2ccc(C(=O)N[C@@H](CC(C)C)C(=O)N[C@H](C#N)C[C@@H]3CCNC3=O)cc2)cc1F [6m] | < 50% | > 95% | 0.731 µM | –
CC(C)C[C@H](NC(=O)c1ccc(-c2ccc3cnn(C)c3c2)cc1)C(=O)N[C@H](C#N)C[C@@H]1CCNC1=O [6n] | < 50% | > 95% | 0.653 µM | –
CC(C)C[C@@H](NC(=O)c1ccc(Br)cc1)C(=O)N[C@H](C#N)C[C@@H]1CCNC1=O [11b] | < 50% | < 95% | – | –
CCCC(NC(=O)c1ccc(Br)cc1)C(=O)NC(C#N)CC1CCNC1=O (stereo not drawn) [11c] | < 50% | < 95% | – | –
N#CC(CC1CCNC1=O)NC(=O)C(CC1CCCCC1)NC(=O)c1ccc(Br)cc1 (stereo not drawn) [11d] | < 50% | < 95% | – | –
N#C[C@H](C[C@@H]1CCNC1=O)NC(=O)C1(NC(=O)c2ccc(Br)cc2)CCCCC1 [11e] | < 50% | > 95% | – | –
CC(C)C[C@@H](NC(=O)c1ccc(-c2ccc(Cl)cc2)cc1)C(=O)N[C@H](C#N)C[C@@H]1CCNC1=O [12a] | < 50% | > 95% | 3.24 µM | –
CC(C)C[C@@H](NC(=O)c1ccc(-c2ccc(F)cc2)cc1)C(=O)N[C@H](C#N)C[C@@H]1CCNC1=O [12b] | < 50% | > 95% | 4.03 µM | –
CC(C)C[C@@H](NC(=O)c1ccc(-c2ccc(F)nc2)cc1)C(=O)N[C@H](C#N)C[C@@H]1CCNC1=O [12c] | < 50% | > 95% | 5.83 µM | –
CCC[C@H](NC(=O)c1ccc(-c2ccccc2OC)cc1)C(=O)N[C@H](C#N)C[C@@H]1CCNC1=O [12d] | < 50% | < 95% | – | –
CCC[C@H](NC(=O)c1ccc(-c2cccc(OC)c2)cc1)C(=O)N[C@H](C#N)C[C@@H]1CCNC1=O [12e] | < 50% | > 95% | 4.86 µM | –
CCC[C@H](NC(=O)c1ccc(-c2ccc(OC)cc2)cc1)C(=O)N[C@H](C#N)C[C@@H]1CCNC1=O [12f] | < 50% | > 95% | 5.48 µM | –
CCC[C@H](NC(=O)c1ccc(-c2ccc(OC)c(OC)c2)cc1)C(=O)N[C@H](C#N)C[C@@H]1CCNC1=O [12g] | < 50% | > 95% | 9.55 µM | –
CCC[C@H](NC(=O)c1ccc(-c2cncc(Cl)c2)cc1)C(=O)N[C@H](C#N)C[C@@H]1CCNC1=O [12h] | < 50% | > 95% | 8.95 µM | –
CCC[C@H](NC(=O)c1ccc(-c2cccc(OCC)c2)cc1)C(=O)N[C@H](C#N)C[C@@H]1CCNC1=O [12i] | < 50% | > 95% | 4.86 µM | –
CCC[C@H](NC(=O)c1ccc(-c2ccc(OC)nc2)cc1)C(=O)N[C@H](C#N)C[C@@H]1CCNC1=O [12j] | < 50% | < 95% | – | –
COc1ccc(-c2ccc(C(=O)N[C@@H](CC3CCCCC3)C(=O)N[C@H](C#N)C[C@@H]3CCNC3=O)cc2)cc1OC [12m] | < 50% | < 95% | 2.11 µM | –
Cn1cc2c(-c3ccc(C(=O)N[C@@H](CC4CCCCC4)C(=O)N[C@H](C#N)C[C@@H]4CCNC4=O)cc3)cccc2n1 [12n] | < 50% | < 95% | 1.28 µM | –

SMILES | inhibition at 10 µM [1] | inhibition at 10 µM [2] | IC50 [2, 4] | also measured
N#C[C@H](C[C@@H]1CCNC1=O)NC(=O)[C@H](CC1CCCCC1)NC(=O)c1ccc(-c2cncc(Cl)c2)cc1 [12o] | < 50% | < 95% | 2.4 µM | –
COc1ccc(-c2ccc(C(=O)NC3(C(=O)N[C@H](C#N)C[C@@H]4CCNC4=O)CCCCC3)cc2)cc1 [12p] | < 50% | > 95% | – | –
CC(C)C[C@H](NC(=O)c1ccc(-c2ccc3c(cnn3C)c2)cc1F)C(=O)N[C@H](C#N)C[C@@H]1CCNC1=O [18c] | – | – | – | IC50 [2, 5]: 0.307 µM; CC50 [3]: > 100000 nM
COc1cccc(-c2ccc(C(=O)N[C@@H](CC(C)C)C(=O)N[C@H](C#N)C[C@@H]3CCNC3=O)c(F)c2F)c1 [18d] | – | – | – | IC50 [2, 6]: 0.171 µM
COc1ccc(-c2ccc(C(=O)N[C@@H](CC(C)C)C(=O)N[C@H](C#N)C[C@@H]3CCNC3=O)c(F)c2F)cc1 [18e] | – | – | – | IC50 [2, 6]: 0.155 µM
COc1cccc(-c2cc(F)c(C(=O)N[C@@H](CC(C)C)C(=O)N[C@H](C#N)C[C@@H]3CCNC3=O)cc2F)c1 [18f] | – | – | – | IC50 [2, 6]: 0.245 µM
COc1ccc(-c2cc(F)c(C(=O)N[C@@H](CC(C)C)C(=O)N[C@H](C#N)C[C@@H]3CCNC3=O)cc2F)cc1 [18g] | – | – | – | IC50 [2, 6]: 0.229 µM
COc1cccc(-c2ccc(C(=O)N[C@@H](CC(C)C)C(=O)N[C@H](C#N)C[C@@H]3CCNC3=O)cc2F)c1 [18h] | – | – | – | IC50 [2, 6]: 0.694 µM
COc1ccc(-c2ccc(C(=O)N[C@@H](CC(C)C)C(=O)N[C@H](C#N)C[C@@H]3CCNC3=O)cc2F)cc1 [18i] | – | – | – | IC50 [2, 6]: 0.661 µM
COc1cccc(-c2ccc(C(=O)N[C@@H](CC(C)C)C(=O)N[C@H](C#N)C[C@@H]3CCNC3=O)c(C)c2)c1 [18j] | – | – | – | IC50 [2, 6]: 0.163 µM
COc1ccc(-c2ccc(C(=O)N[C@@H](CC(C)C)C(=O)N[C@H](C#N)C[C@@H]3CCNC3=O)c(C)c2)cc1 [18k] | – | – | – | IC50 [2, 5]: 0.085 µM; CC50 [3]: > 100000 nM
COc1cccc(-c2ccc(C(=O)N[C@@H](CC(C)C)C(=O)N[C@H](C#N)C[C@@H]3CCNC3=O)c(C(F)(F)F)c2)c1 [18l] | – | – | – | IC50 [2, 6]: 0.115 µM
COc1ccc(-c2ccc(C(=O)N[C@@H](CC(C)C)C(=O)N[C@H](C#N)C[C@@H]3CCNC3=O)c(C(F)(F)F)c2)cc1 [18m] | – | – | – | IC50 [2, 5]: 0.096 µM; CC50 [3]: 70600 nM
CC(C)C[C@H](NC(=O)c1ccc(-c2ccc3c(cnn3C)c2)cc1Cl)C(=O)N[C@H](C#N)C[C@@H]1CCNC1=O [18o] | – | – | – | IC50 [2, 5]: 0.052 µM; CC50 [3]: 83500 nM
CC(C)C[C@H](NC(=O)c1ccc(-c2cccc3nn(C)cc23)cc1Cl)C(=O)N[C@H](C#N)C[C@@H]1CCNC1=O [18p] | – | – | – | IC50 [2, 5]: 0.068 µM; CC50 [3]: > 100000 nM
CC(C)C[C@H](NC(=O)c1ccc(-c2ccc3cnn(C)c3c2)cc1Cl)C(=O)N[C@H](C#N)C[C@@H]1CCNC1=O [18q] | – | – | – | IC50 [2, 5]: 0.053 µM; CC50 [3]: 77400 nM
COc1cccc(-c2ccc(C(=O)N3C[C@H]4[C@@H]([C@H]3C(=O)N[C@H](C#N)C[C@@H]3CCNC3=O)C4(C)C)cc2)c1 [22a] | – | – | – | IC50 [2, 7]: 1.02 µM
COc1ccc(-c2ccc(C(=O)N3C[C@H]4[C@@H]([C@H]3C(=O)N[C@H](C#N)C[C@@H]3CCNC3=O)C4(C)C)cc2)cc1 [22b] | – | – | – | IC50 [2, 7]: 1.13 µM
COc1cccc(-c2ccc(C(=O)N3C[C@H]4[C@@H]([C@H]3C(=O)N[C@H](C#N)C[C@@H]3CCNC3=O)C4(C)C)c(F)c2)c1 [22c] | – | – | – | IC50 [2, 7]: 0.465 µM
COc1ccc(-c2ccc(C(=O)N3C[C@H]4[C@@H]([C@H]3C(=O)N[C@H](C#N)C[C@@H]3CCNC3=O)C4(C)C)c(F)c2)cc1 [22d] | – | – | – | IC50 [2, 7]: 0.394 µM
COc1cccc(-c2ccc(C(=O)N3C[C@@H]4CCC[C@@H]4[C@H]3C(=O)N[C@H](C#N)C[C@@H]3CCNC3=O)cc2)c1 [22g] | – | – | – | IC50 [2, 7]: 2.67 µM
COc1ccc(-c2ccc(C(=O)N3C[C@@H]4CCC[C@@H]4[C@H]3C(=O)N[C@H](C#N)C[C@@H]3CCNC3=O)cc2)cc1 [22h] | – | – | – | IC50 [2, 7]: 2.99 µM
COc1cccc(-c2ccc(C(=O)N3C[C@@H]4CCC[C@@H]4[C@H]3C(=O)N[C@H](C#N)C[C@@H]3CCNC3=O)c(F)c2)c1 [22i] | – | – | – | IC50 [2, 7]: 1.91 µM
COc1ccc(-c2ccc(C(=O)N3C[C@@H]4CCC[C@@H]4[C@H]3C(=O)N[C@H](C#N)C[C@@H]3CCNC3=O)c(F)c2)cc1 [22j] | – | – | – | IC50 [2, 7]: 1.27 µM
CC(C)(C)[C@H](NC(=O)C(F)(F)F)C(=O)N1C[C@H]2[C@@H]([C@H]1C(=O)N[C@H](C#N)C[C@@H]1CCNC1=O)C2(C)C [nirmatrelvir, reference compound] | – | – | – | CC50 [3]: > 100000 nM
